According to ChEMBL document CHEMBL1201862, “PubChem BioAssay data set” (2004):
Activity calls are given as the source filed them.

Key:
[1] = biological target: T1, Calpain-2 catalytic subunit (Sus scrofa, UniProt P43367); test: m-calpain protease blockers, concentration series – biochemical, fluorogenic peptide substrate, dose response (AID 1420); assay type: functional
T1 sequence (P43367 whole entry): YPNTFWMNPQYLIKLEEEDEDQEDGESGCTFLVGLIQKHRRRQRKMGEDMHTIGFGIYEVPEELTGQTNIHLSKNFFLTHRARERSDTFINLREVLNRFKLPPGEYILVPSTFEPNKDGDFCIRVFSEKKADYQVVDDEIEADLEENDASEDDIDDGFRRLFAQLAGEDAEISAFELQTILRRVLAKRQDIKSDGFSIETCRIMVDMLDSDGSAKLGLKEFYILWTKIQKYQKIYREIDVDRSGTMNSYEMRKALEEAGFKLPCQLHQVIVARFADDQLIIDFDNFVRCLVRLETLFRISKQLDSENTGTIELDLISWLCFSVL

[2] = Luminescence Cell-Based Dose Response HTS to Identify Inhibitors of 5'UTR Stem-Loop Driven Prion Protein mRNA Translation in H4 Neuroglioblastoma Cells. [Related pubchem assays: 1827 (Project Summary), 1813 (Primary HTS)]; assay type: functional
[3] = luciferase reporter signal suppression in cells – H4 neuroglioma cells, luminescence, dose response (AID 1990); assay type: functional, cell-based
[4] = alpha-synuclein stem-loop luciferase translation blockers – H4 neuroglioma cells, luminescence, confirmation (AID 1988); assay type: functional, cell-based
[5] = microbe, parasite or virus in culture; assay type: functional; conditions: Mycobacterium tuberculosis
[6] = NIH-3T3 fibroblast cytotoxicity, dose response, cytotoxicity control, cell-based, fluorescence, Alamar Blue, secondary assay (AID 2327); assay type: functional;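 further: NIH-3T3 mouse fibroblasts cultured with fluconazole at 8 µg/mL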
[7] = fluconazole-exposed Candida albicans growth modulators – fluorescence, retest, confirmation (AID 2467); assay type: functional, cell-based
[8] = blockers of HIV-1 envelope-mediated cell-cell fusion – cherry-pick, dose response (AID 652057); assay type: functional, cell-based
[9] = HIV-1 AD8 envelope cell-cell fusion blockers – cherry-pick, dose response (AID 652062); assay type: functional, cell-based;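 further: luciferase signal from cell-cell fusion driven by HIV-1 clade B AD8 Env; potency is for inhibitors of fusion seen as a drop in luminescence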
Fatty acid synthase [10] = biological target: T2, Fatty acid synthase (Homo sapiens, UniProt P49327); test: inhibition of human FAS-TE enzyme activity – biochemical, kinetic fluorescence intensity, dose response (AID 624326); assay type: functional;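 further: rate of fluorescence rise from hydrolysis of a fluorogenic O-methyl fluorescein ester substrate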
T2 sequence (P49327 whole entry): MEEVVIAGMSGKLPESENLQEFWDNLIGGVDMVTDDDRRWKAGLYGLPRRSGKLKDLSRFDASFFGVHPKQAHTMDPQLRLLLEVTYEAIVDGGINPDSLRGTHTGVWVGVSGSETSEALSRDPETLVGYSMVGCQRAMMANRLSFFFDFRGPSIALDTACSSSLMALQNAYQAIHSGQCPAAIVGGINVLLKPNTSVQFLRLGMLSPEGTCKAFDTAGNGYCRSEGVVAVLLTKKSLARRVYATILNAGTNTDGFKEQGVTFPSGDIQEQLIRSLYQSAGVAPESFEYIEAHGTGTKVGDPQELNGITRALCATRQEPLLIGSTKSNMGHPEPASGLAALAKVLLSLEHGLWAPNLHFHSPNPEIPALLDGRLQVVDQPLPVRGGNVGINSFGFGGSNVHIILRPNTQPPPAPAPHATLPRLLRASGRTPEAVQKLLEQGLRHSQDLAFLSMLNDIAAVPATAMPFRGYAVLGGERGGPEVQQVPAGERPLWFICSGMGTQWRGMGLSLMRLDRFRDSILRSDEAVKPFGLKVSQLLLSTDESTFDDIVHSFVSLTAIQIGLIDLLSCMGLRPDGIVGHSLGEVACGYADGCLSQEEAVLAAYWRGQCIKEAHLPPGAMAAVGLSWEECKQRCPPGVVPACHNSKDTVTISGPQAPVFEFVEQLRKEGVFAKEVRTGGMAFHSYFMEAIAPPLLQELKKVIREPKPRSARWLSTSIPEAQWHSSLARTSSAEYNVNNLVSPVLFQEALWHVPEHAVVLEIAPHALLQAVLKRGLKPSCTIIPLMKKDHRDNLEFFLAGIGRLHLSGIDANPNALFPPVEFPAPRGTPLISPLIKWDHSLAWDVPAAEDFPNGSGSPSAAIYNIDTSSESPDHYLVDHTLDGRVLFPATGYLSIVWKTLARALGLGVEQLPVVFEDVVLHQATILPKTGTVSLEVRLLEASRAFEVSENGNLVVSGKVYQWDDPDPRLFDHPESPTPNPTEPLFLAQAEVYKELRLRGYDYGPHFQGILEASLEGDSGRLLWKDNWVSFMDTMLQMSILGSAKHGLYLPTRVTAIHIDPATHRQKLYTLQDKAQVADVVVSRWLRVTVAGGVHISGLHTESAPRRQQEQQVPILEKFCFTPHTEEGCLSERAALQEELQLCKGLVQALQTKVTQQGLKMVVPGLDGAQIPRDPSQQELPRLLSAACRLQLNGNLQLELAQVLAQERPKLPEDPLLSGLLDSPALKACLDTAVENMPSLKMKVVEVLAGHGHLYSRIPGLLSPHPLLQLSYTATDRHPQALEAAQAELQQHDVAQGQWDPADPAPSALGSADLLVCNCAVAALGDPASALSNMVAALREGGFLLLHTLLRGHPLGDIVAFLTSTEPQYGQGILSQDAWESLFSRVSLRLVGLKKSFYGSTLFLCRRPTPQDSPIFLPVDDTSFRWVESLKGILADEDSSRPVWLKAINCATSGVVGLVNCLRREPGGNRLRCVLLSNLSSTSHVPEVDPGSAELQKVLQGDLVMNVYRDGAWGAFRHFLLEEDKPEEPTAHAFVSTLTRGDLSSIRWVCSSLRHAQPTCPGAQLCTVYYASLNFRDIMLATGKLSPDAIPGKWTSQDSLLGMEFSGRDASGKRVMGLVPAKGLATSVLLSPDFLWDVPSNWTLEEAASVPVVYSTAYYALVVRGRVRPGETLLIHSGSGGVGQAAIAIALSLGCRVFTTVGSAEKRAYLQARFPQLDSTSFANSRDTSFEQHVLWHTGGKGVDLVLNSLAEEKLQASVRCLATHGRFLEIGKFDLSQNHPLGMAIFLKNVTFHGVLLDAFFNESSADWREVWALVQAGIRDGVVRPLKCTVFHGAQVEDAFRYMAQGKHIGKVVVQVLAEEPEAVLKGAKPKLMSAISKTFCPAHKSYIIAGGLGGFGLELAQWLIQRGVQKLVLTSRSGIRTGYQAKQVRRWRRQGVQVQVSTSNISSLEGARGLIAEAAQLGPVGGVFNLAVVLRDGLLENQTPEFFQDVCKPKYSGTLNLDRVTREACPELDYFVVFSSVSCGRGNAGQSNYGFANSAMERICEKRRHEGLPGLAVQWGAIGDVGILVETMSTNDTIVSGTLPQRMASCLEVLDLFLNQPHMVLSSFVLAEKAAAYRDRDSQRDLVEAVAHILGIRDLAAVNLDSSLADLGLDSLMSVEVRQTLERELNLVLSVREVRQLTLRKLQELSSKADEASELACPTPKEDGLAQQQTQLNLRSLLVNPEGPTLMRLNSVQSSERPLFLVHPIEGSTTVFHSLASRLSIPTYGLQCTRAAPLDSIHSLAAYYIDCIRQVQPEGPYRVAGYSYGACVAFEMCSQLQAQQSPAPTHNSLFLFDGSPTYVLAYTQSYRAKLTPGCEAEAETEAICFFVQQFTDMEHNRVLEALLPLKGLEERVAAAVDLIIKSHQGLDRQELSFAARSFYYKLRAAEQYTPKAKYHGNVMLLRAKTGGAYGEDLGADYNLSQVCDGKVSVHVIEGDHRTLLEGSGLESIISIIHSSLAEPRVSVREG

Fatty acid synthase [11] = biological target: T2, Fatty acid synthase; test: inhibition of human FAS-TE enzyme activity – biochemical, endpoint fluorescence intensity, uHTS hits, dose response (AID 624327); assay type: functional;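 further: fluorescence from hydrolysis of an O-methyl fluorescein acyl ester substrate by the enzyme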
cells = assay type: functional
[12] = biological target: T3, High affinity choline transporter 1 (Homo sapiens, UniProt Q9GZV3); test: human choline transporter blockers, potency – cell-based, 5-point CRC, membrane potential dye, dose response (AID 504840); assay type: functional
T3 sequence (Q9GZV3 whole entry): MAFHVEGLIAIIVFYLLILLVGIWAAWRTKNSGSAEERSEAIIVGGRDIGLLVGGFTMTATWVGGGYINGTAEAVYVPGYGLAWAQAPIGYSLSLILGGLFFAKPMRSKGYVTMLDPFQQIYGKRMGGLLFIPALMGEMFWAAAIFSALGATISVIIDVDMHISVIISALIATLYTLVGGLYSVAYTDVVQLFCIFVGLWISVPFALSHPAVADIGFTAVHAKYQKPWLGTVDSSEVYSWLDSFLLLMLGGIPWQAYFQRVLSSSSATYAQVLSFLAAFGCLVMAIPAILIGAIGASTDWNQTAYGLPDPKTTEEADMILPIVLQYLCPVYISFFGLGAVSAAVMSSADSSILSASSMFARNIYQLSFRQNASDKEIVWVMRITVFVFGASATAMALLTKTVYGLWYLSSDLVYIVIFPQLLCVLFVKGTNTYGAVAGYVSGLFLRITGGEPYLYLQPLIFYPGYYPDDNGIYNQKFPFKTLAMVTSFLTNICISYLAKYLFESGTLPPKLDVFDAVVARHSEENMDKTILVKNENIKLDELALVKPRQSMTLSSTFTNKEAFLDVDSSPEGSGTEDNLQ

Streptokinase A = biological target: T4, Streptokinase A (Streptococcus pyogenes serotype M1, UniProt P10520); test: viability-normalized secreted streptokinase activity reduction – plasminogen activation absorbance, OD405, dose response (AID 1914); assay type: functional, Streptococcus pyogenes M1 GAS;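 further: secreted streptokinase activity via plasminogen activation per viability signal from cell pellet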
T4 sequence (P10520 whole entry): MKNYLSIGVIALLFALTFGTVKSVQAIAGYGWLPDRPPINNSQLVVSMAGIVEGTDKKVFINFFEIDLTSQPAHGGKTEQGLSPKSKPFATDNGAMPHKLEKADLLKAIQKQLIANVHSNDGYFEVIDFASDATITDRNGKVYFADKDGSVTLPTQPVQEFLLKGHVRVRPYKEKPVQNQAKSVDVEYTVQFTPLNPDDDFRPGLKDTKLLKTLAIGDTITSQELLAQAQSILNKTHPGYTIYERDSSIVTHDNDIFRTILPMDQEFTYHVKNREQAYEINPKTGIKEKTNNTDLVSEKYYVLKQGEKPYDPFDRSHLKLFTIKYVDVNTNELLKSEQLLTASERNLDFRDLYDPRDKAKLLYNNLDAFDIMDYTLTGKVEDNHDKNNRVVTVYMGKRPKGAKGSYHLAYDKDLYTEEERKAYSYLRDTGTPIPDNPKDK

[13] = reduction of Shn3 3'UTR-driven luciferase in osteoblasts – cell-based, Clone20 osteoblasts, firefly luciferase, cherry-picked, dose response (AID 624132); assay type: functional;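 further: firefly luciferase luminescence from reporter carrying the Shn3 3'UTR in osteoblasts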
Streptococcus = test: GAS UMAA2166 growth inhibition – luminescence, BacTiterGlo, counter-screen for streptokinase expression inhibitor project, dose response (AID 1915); assay type: functional, organism-based;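 further: potency for reduction of bacterial viability or growth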
[14] = test system: Streptococcus sp. 'group A'; test: Streptococcus pyogenes SK(-)GAS viability under kanamycin – luminescence, BacTiterGlo, confirmation, counter-screen for streptokinase expression inhibitor project, dose response (AID 1900); assay type: functional, organism-based
[15] = non-specific 3'UTR reporter inhibition in Clone20-Shn3RL – cell-based, Renilla luciferase, cherry-picked, counter-screen for Shn3 inhibitor project, dose response (AID 624133); assay type: functional
[16] = biological target: Heat shock protein HSP 90-alpha (Homo sapiens, UniProt P07900); assay type: functional, organism-based
[17] = loss of viability in HepG2 cells – cell-based, CellTiter-Glo, cherry-picked, cytotoxicity control for Shn3 inhibitor project, dose response (AID 624134); assay type: functional
Cytochrome P450 2D6 = Cytochrome P450 2D6 (Homo sapiens, UniProt P10635);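 further: CYP2D6 member of a cytochrome P450 panel assay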
Cytochrome P450 2D6, sequence (P10635 whole entry, the tested form may be a part): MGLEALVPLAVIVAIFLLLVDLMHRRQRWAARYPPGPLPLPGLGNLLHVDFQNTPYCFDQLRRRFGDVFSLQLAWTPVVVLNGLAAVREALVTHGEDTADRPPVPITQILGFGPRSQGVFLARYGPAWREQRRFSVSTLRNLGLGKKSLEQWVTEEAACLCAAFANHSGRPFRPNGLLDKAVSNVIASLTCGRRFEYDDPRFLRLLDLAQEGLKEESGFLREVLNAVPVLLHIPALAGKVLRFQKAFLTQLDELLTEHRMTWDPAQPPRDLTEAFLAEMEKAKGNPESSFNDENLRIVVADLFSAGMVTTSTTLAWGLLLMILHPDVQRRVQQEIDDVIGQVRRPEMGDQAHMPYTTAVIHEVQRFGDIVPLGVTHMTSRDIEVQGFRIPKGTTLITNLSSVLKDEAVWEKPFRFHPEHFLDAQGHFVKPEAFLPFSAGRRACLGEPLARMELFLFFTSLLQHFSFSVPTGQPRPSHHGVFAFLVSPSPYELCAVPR

[18] = biological target: T5, Carboxy-terminal domain RNA polymerase II polypeptide A small phosphatase 1 (Homo sapiens, UniProt Q9GZU7); test: CTDSP1 inhibitors, concentration-response, biochemical, absorbance readout, ultra-high-throughput screen actives (AID 540297); assay type: functional
T5 sequence (Q9GZU7 whole entry): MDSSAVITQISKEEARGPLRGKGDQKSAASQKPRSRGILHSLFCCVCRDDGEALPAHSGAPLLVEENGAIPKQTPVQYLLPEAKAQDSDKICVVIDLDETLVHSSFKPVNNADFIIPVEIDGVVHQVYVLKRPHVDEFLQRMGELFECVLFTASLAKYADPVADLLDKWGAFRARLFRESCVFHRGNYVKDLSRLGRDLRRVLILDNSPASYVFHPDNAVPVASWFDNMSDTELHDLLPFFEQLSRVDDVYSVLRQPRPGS

[19] = biological target: T6, Heat shock factor protein 1 (Mus musculus, UniProt P38532); test: enhancement of HSF1-driven luciferase signal – cell-based, NIH3T3, luminescence, dose retest, confirmation (AID 435004); assay type: functional;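 further: stress induced by proteasome inhibitor MG132 added 30 min after compound; luciferase reporter driven by HSF1 response element in NIH3T3 cells; actives raise luminescence as potentiators of the MG132 stress response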
T6 sequence (P38532 whole entry): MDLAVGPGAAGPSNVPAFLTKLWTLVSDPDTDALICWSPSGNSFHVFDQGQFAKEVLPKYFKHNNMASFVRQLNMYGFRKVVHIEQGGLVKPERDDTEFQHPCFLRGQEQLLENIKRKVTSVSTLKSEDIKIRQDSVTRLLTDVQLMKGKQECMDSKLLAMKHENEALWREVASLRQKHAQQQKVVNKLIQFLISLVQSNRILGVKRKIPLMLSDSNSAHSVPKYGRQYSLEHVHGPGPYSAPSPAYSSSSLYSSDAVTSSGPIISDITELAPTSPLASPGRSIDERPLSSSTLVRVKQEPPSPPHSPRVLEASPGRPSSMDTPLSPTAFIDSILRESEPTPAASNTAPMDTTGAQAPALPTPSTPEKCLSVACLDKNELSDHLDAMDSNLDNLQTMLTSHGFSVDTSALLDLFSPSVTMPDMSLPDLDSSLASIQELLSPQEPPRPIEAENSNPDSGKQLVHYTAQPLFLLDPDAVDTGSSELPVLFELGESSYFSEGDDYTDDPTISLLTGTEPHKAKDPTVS

**Q.** For `O=c1c2ccccc2nc(SCc2cn3ccsc3n2)n1-c1ccccc1F`, which IC50 [1] is on record?
**A.** The IC50 was < 0.4 µM (not active).

**Q.** With `Cc1cccc(NC(S)=NCCSc2ccc(Cl)cc2)c1` as the compound, how does the EC50 [2] read?
**A.** The EC50 was 62.6 µM (active).

**Q.** And the EC50 [3]?
**A.** Its EC50 is > 120 µM (not active).

**Q.** What about the IC50 [1] of the same compound?
**A.** The IC50 was 3.87 µM (not active).

**Q.** And the EC50 [4]?
**A.** The EC50 was 84.8 µM (active).

**Q.** Which CC50 [5] does the source give for `Cc1ccc(C2C3=C(CC(C)(C)CC3=O)N=C3c4ccccc4C(=O)C32)cc1` (stereo unspecified) here?
**A.** Its CC50 is > 40 µM (active).

**Q.** What about the EC50 [6] of the same compound?
**A.** The EC50 was 24 µM (active).

**Q.** What about the EC50 [7] of the same compound?
**A.** Its EC50 is 1.01 µM (active).

**Q.** With `CC(=O)c1c(C)[nH]c(C(=O)OCC(=O)Nc2ccc(Cl)c(S(=O)(=O)N(C)C)c2)c1C` as the compound, how does the AC50 [8] read?
**A.** The AC50 was 2.76 µM (active).

**Q.** What about the AC50 [9] of the same compound?
**A.** Its AC50 is 40.4 µM (active).

**Q.** Which results are given for `Cc1ccc(C(=O)CN(CCCC(N)=O)S(=O)(=O)c2ccc([N+](=O)[O-])cc2)cc1`?
**A.** IC50 (Fatty acid synthase [10]): 2.83 µM (active); IC50 (Fatty acid synthase [11]): 3.83 µM (active)

**Q.** With `Cc1nn(-c2ccccc2)nc1C(=O)c1c(C)nn(-c2ccccc2)c1O` as the compound, how does the CC50 [5] read?
**A.** Its CC50 is 35.8 µM (active).

**Q.** What about the IC50 (cells) of the same compound?
**A.** Its IC50 is 12.8 µM (active).

**Q.** With `COc1ccc(/C=C2\N=C(c3ccccc3)N(c3ccc(C(=O)O)cc3)C2=O)cc1OC` as the compound, how does the IC50 [12] read?
**A.** The IC50 was 12.6 µM (active).

**Q.** With `Cc1nc(SCC(=O)NC(=O)NC2CCCCC2)nc(C)c1C` as the compound, how does the IC50 [12] read?
**A.** The IC50 was 12.7 µM (active).

**Q.** For `CC(C)=CCc1cc([C@@H]2COc3c(ccc4c3C=CC(C)(C)O4)C2)c(O)cc1O`, which EC50 (Streptokinase A) is on record?
**A.** The EC50 was > 150 µM (not active).

**Q.** And the AC50 [13]?
**A.** The AC50 was 7.54 µM (active).

**Q.** What about the EC50 (Streptococcus) of the same compound?
**A.** Its EC50 is 5.23 µM (active).

**Q.** And the EC50 [14]?
**A.** The EC50 was 1.8 µM (active).

**Q.** What about the AC50 [15] of the same compound?
**A.** The AC50 was 4.11 µM (active).

**Q.** And the AC50 [16]?
**A.** Its AC50 is 3.57 µM (active).

**Q.** And the AC50 [17]?
**A.** Its AC50 is 58.3 µM (active).

**Q.** Which IC50 (Fatty acid synthase [10]) does the source give for `COc1ccc(NC(=O)CN(c2ccc([N+](=O)[O-])cc2)S(=O)(=O)c2ccccc2)cc1` here?
**A.** Its IC50 is 3.48 µM (active).

**Q.** What about the IC50 (Fatty acid synthase [11]) of the same compound?
**A.** The IC50 was 7.77 µM (active).

**Q.** For `CC(C)C(=O)N1CCN(c2ccccc2N)CC1`, which IC50 [1] is on record?
**A.** The IC50 was 0.734 µM (not active).

**Q.** For `O=C(COC(=O)c1ccccc1Nc1cccc(C(F)(F)F)c1)NCc1ccco1`, which AC50 (Cytochrome P450 2D6) is on record?
**A.** Its AC50 is 10 µM (inconclusive).

**Q.** What about the IC50 [18] of the same compound?
**A.** The IC50 was 6.38 µM (active).

**Q.** Which IC50 [12] does the source give for `CCCc1cc(C(=O)NN=C(S)NCc2ccccc2)cs1` here?
**A.** The IC50 was 12.9 µM (active).

**Q.** For `CC(=O)Oc1ccc(-c2cccc(C(=O)OCC(=O)N(C)c3ccccc3)c2)cc1`, which IC50 [1] is on record?
**A.** The IC50 was 14.2 µM (not active).

**Q.** And the EC50 [19]?
**A.** The EC50 was > 260 µM (inactive).
